The test system of data set [1] is hypertension rat model established by L-NAME. As to the kind of experiment: Antihypertensive efficacy (tail artery blood pressure) in L-NAME hypertension rat model. The class given is in vivo, Wistar rats. The method, then: A total of 48 Wistar rats were treated with L-NAME (60 mg/kg·d^-1) intragastrically for 4 weeks ([[…] al., 2003]; [[…] et al., 2002]; [Ahad et al., 2020a]). Systolic blood pressure (SBP) ≥140 mmHg was considered to be a successful hypertension model and was used to maintain L-NAME treatment until animal death. The blood pressure measurement method was performed as described in previous literature studies and the blood pressure of each rat was determined by the average of 5 measurements by a non-invasive rat tail sphygmomanometer (BP-2006A, Beijing Softron Biotechnology Co., Ltd.) ([Gillis et al., 2020]; [Dias et al., 2021]). This experimental protocol was approved by the Animal Care and Use Committee of Shanghai University of Traditional Chinese Medicine. A total of 36 hypertensive rats and 6 normal rats were included in this experiment. […] A total of 6 normal rats were assigned to a blank group without any treatment. Following the treatment of the rats for 2 weeks, the blood pressure of their tail artery was measured.

Data set [2] deals with CYP3A4 (Homo sapiens, UniProt P08684). The settings on record: Human liver microsomes, cited from earlier work.
Sequence of CYP3A4 (P08684 whole entry): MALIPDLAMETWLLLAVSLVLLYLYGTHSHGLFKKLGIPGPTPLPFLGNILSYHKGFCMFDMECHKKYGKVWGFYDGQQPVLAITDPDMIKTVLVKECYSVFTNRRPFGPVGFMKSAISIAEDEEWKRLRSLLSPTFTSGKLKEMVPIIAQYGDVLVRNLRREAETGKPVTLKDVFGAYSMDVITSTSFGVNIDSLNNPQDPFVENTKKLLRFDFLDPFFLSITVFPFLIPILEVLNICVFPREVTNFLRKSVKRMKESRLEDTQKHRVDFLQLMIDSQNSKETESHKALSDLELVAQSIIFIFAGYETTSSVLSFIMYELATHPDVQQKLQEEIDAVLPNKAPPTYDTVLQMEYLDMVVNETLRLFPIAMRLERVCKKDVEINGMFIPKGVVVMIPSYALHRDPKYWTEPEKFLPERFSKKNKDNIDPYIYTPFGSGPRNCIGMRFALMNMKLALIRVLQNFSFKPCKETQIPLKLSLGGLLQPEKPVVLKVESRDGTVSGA
Data set [3] has as its target T1, CYP2C9 (Homo sapiens, UniProt P11712).
T1 construct: respectively, were mixed with human liver microsomes; tissue In Vitro Technologies (Noble Park North, VIC, Australia); host or cells: human liver microsomes
As to conditions: Human liver microsomes, cited from earlier work. Background: Liver microsomes are vesicles of endoplasmic reticulum, rich in cytochrome P450 enzymes.

Data set [4] in a line: Pharmacokinetics of LOS and EXP3174 in the hypertension rat model (LC-MS). As to conditions: hypertensive rats (L-NAME); for AUC(0-inf) / AUC(0-t) / Cmax / MRT / Tmax / half-life: Wistar, rat, plasma, po, 10 mg/kg/day. The class given is in vivo, Wistar rats. The method, then:
All samples were centrifuged at 3,000 rpm for 10 min, and the upper plasma was collected for Liquid Chromatography Mass Spectrometry (LC-MS) analysis. The LOS and EXP3174 in rat serum were quantitatively determined by a validated LC-MS method. The LC-MS system contained a Q/Exactive Quadrupole/Electrostatic Field Track Well High Resolution Mass Spectrometer (Thermo Fisher Scientific, Waltham, MA, United States) and a Dionex Ultimate 3,000 High-pressure liquid chromatography (Dionex, Subsidiary, CA, United States) system equipped with an electro-spray ionization source. […] The mobile phase included 0.1% formic acid aqueous solution (C) and acetonitrile (D) at a flow rate of 0.3 ml/min. The proportion of phase B in the mobile phase was adjusted from 40 to 5% at 0-2 min, 5% at 2-4 min, 40% at 4-5 min. The parameters of mass spectrometry for each analyte were shown in Supplementary Figure S1 . The collected data were analyzed through Xcalibur 4.1 software. The serum drug concentration data in each sample were obtained by calculation. The pharmacokinetic parameters corresponding to each rat were calculated using the “non-compartmental model” of the “PK solution 2.0TM (Summit Research Services, United States)” pharmacokinetic software. The half-life (t 1/2 ), peak drug concentration (C max), peak time (T max), the area under the plasma concentration-time curve (AUC) from time zero to the time of the last measurable plasma concentration (AUC 0-t ), AUC from time zero to infinity (AUC 0-∞ ), mean residence time (MRT), clearance (CL), apparent volume of distribution (V d ), and relative bioavailability (Frel) were calculated.

The nature of data set [5]: Pharmacokinetics of LOS and EXP3174 in non-hypertensive Wistar rats (LC-MS). The class given is in vivo. As to conditions: Wistar rats without L-NAME. As to the method: All groups were treated for 2 weeks and the blood collection time and methods of serum management were the same as those mentioned above. The LOS and EXP3174 in rat serum were quantitatively determined by a validated LC-MS method. The LC-MS system contained a Q/Exactive Quadrupole/Electrostatic Field Track Well High Resolution Mass Spectrometer (Thermo Fisher Scientific, Waltham, MA, United States) and a Dionex Ultimate 3,000 High-pressure liquid chromatography (Dionex, Subsidiary, CA, United States) system equipped with an electro-spray ionization source. […] The mobile phase included 0.1% formic acid aqueous solution (C) and acetonitrile (D) at a flow rate of 0.3 ml/min. The proportion of phase B in the mobile phase was adjusted from 40 to 5% at 0–2 min, 5% at 2–4 min, 40% at 4–5 min. The parameters of mass spectrometry for each analyte were shown in Supplementary Figure S1 . The collected data were analyzed through Xcalibur 4.1 software. The serum drug concentration data in each sample were obtained by calculation. The pharmacokinetic parameters corresponding to each rat were calculated using the “non-compartmental model” of the “PK solution 2.0TM (Summit Research Services, United States)” pharmacokinetic software. The half-life (t 1/2 ), peak drug concentration (C max), peak time (T max), the area under the plasma concentration-time curve (AUC) from time zero to the time of the last measurable plasma concentration (AUC 0-t ), AUC from time zero to infinity (AUC 0-∞ ), mean residence time (MRT), clearance (CL), apparent volume of distribution (V d ), and relative bioavailability (Frel) were calculated.

Data set [6] deals with CYP2C9. As to the kind of experiment: Western blot of rat liver tissue, CYP2C9 protein expression. The class given is in vivo. The settings on record: liver of hypertensive rats; comparison between all groups; p > 0.05. An excerpt: The immunoreactive bands were detected by chemiluminescence.
A general note: In western blotting, separated proteins are transferred to a membrane and probed.

Data set [7] has as its system hypertension rat model established with L-NAME. Details: method as in Ahad et al., 2020b. The settings on record: within 2 h following 10 mg kg^−1 LOS; rat model after 2 weeks L-NAME; ref Ahad et al., 2020b; cited from earlier work.
The conditions of data set [8]: cited from earlier work.
Where [9] appears, read: 4 weeks of L-NAME 60 mg/kg/d intragastric, model group.
[10] abbreviates: 6 weeks of continuous L-NAME, model group.
Where [11] appears, read: vs model group, 2 weeks treatment, SMI 6 ml/kg/d tail vein (SMI-H), LOS 10 mg/kg/d intragastric.
Where [12] appears, read: LOS 10 mg/kg/d ig + SMI 2 ml/kg/d tail vein (SMI-L+LOS group).
The mark [13] stands for this setting: LOS 10 mg/kg/d ig + SMI 4 ml/kg/d tail vein (SMI-M+LOS group).
The mark [14] stands for this setting: LOS 10 mg/kg/d ig + SMI 6 ml/kg/d tail vein (SMI-H+LOS group).
Where [15] appears, read: LOS 10 mg/kg/d ig alone (LOS group).
Setting [16] is: LOS 10 mg/kg/d ig + SMI 6 ml/kg/d tail vein (BLANK + SMI-H+LOS group).
[17] abbreviates: LOS 10 mg/kg/d ig alone (BLANK + LOS group).
[18] abbreviates: rat, serum, po, LOS 10 mg/kg/d ig alone (BLANK + LOS group).

Like-named read-outs stand apart in the source and are kept apart here.

As a reminder, the AUC(0-inf) is the area under the concentration-time curve extrapolated to infinity. The AUC(0-t) is the area under the concentration-time curve up to a stated or last time point. The Cmax is the maximum level reached in the sampled fluid or tissue. The term MRT denotes a mean duration of stay, worked out from the concentration-time curve. For orientation: Tmax means the time at which the peak concentration occurs. One may read the half-life as how long it takes for the measured level to halve.

T1 sequence (P11712 whole entry): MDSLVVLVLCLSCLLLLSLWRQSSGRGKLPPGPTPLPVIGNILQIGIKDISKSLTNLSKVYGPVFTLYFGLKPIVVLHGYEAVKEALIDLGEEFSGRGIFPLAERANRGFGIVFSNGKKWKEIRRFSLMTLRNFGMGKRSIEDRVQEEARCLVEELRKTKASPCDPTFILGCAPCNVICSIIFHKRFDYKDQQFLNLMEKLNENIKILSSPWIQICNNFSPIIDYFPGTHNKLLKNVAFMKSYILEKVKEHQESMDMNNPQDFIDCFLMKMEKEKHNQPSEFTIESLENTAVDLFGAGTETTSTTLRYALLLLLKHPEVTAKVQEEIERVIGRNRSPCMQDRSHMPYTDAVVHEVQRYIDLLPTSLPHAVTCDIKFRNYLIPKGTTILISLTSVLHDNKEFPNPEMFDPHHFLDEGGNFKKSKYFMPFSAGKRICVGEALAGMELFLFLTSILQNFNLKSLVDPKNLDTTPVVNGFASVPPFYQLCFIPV

Take `COC(=O)[C@@H](N)CCCNC(N)=N[N+](=O)[O-]` [L-NAME, N (omega)-nitro-L-arginine methyl ester]: in data set [1] (setting [9]), the “increase in DBP” value was found to be 34.83 ± 8.82 mmHg, the “increase in MAP” value came out at 36.00 ± 6.10 mmHg and the “increase in SBP” value was 37.83 ± 8.52 mmHg. In data set [1] (setting [10]), the “average increase in DBP” value was 42.33 ± 15.34 mmHg, the “average increase in MAP” value is on record as 46.00 ± 13.11 mmHg and the “average increase in SBP” value was 50.50 ± 6.09 mmHg.

For the molecule `CC(C)=CCC[C@](C)(O[C@@H]1O[C@H](CO[C@@H]2O[C@H](CO)[C@@H](O)[C@H](O)[C@H]2O)[C@@H](O)[C@H](O)[C@H]1O)[C@H]1CC[C@]2(C)[C@@H]1[C@H](O)C[C@@H]1[C@@]3(C)CC[C@H](O[C@@H]4O[C@H](CO)[C@@H](O)[C@H](O)[C@H]4O[C@@H]4O[C@H](CO)[C@@H](O)[C@H](O)[C@H]4O)C(C)(C)[C@@H]3CC[C@]12C` [Ginsenoside Rb1], the “Effects on CYP3A4” value in data set [2] (ref Hao et al. (2008)) is on record as “Inhibition”; in data set [2] (ref He and Edeki, (2004)) it was “Inhibition”. The “Effects on CYP2C9” value in data set [3] (ref Hao et al. (2008)) is recorded as “Inhibition”; in data set [3] (ref He and Edeki, (2004)) it was “Inhibition”.

Consider `COc1cc2c(c(OC)c1OC)-c1c(cc(OC)c(OC)c1OC)C[C@](C)(O)[C@@H](C)C2` [schizandrin], for which the “Effects on CYP3A4” value in data set [2] (ref Cao et al. (2009)) is listed as “Inhibition”.

Turning to `CCCCc1nc(Cl)c(CO)n1Cc1ccc(-c2ccccc2-c2nn[nH]n2)cc1` [LOS, losartan potassium], in data set [1] (setting [11]), the “decrease in DBP” value is 12.14%, the “decrease in MAP” value turned out to be 11.92% and the “decrease in SBP” value is 6.32%. Also, in data set [4] (setting [12]), the AUC(0-inf) worked out at 1210 ng·h/mL, the AUC(0-t) was found to be 1110 ng·h/mL, the Cmax is 125 ± 53.6 ng/mL and the MRT worked out at 8.54 ± 1.8 h. Also, in data set [4] (setting [12]), the Tmax was 2.2 ± 0.84 h, the half-life was 6.74 ± 0.64 h, the CL is 27,497.47 ± 14,702.73 ml/h/kg and the Vd is reported as 264,405.76 ± 142,122.69 ml/kg. Besides, in data set [4] (setting [13]), the area under the curve AUC(0-inf) was 1430 ng·h/mL, the AUC(0-t) was 1250 ng·h/mL, the Cmax was found to be 132 ± 35 ng/mL and the MRT worked out at 11.3 ± 2.22 h. Besides, in data set [4] (setting [13]), the Tmax stood at 1.5 ± 0.55 h, the half-life was 8.41 ± 1.43 h, the CL is reported as 17,964.40 ± 3,185.66 ml/h/kg and the Vd is 217,016.60 ± 45,076.20 ml/kg. In data set [4] (setting [14]), the AUC(0-inf) was found to be 1420 ng·h/mL, the area under the curve AUC(0-t) came to 1240 ng·h/mL, the Cmax was determined as 156 ± 64.1 ng/mL and the MRT was found to be 12.1 ± 1.02 h. For the same molecule, in data set [4] (setting [14]), the Tmax came to 2.33 ± 0.52 h, the half-life is 9.92 ± 0.96 h, the CL is 19,127.96 ± 5,549.27 ml/h/kg and the Vd is recorded as 277,463.55 ± 98,140.99 ml/kg. In addition, in data set [4] (setting [15]), the AUC(0-inf) turned out to be 841 ± 232 ng·h/mL, the AUC(0-t) is 787 ± 213 ng·h/mL, the Cmax was 112 ± 41.7 ng/mL and the mean residence time MRT worked out at 8.18 ± 0.89 h. In data set [4] (setting [15]), the Tmax amounted to 2 ± 0.89 h, the half-life was 6.19 ± 0.43 h, the CL is recorded as 32,042.39 ± 10,551.59 ml/h/kg and the Vd is on record as 282,441.65 ± 73,729.85 ml/kg. Further, in data set [4] (SMI-H + LOS group (SMI 6 ml/kg/d)), the “increase of AUC 0-t compared with LOS group” value stood at 58.1%. For the same molecule, in data set [5] (setting [16]), the CL is 5,327.27 ± 1,010.94 ml/h/kg and the Vd is given as 67,493.75 ± 17,745.97 ml/kg. Further, in data set [5] (setting [17]), the CL was 10,392.48 ± 1,296.50 ml/h/kg and the Vd is on record as 90,573.23 ± 13,394.06 ml/kg. Further, in data set [5] (setting [18]), the AUC(0-inf) amounted to 975 ± 121 ng·h/mL, the area under the curve AUC(0-t) was determined as 911 ± 115 ng·h/mL, the Cmax is 108 ± 6.26 ng/mL and the mean residence time MRT is 8.6 ± 0.54 h. In addition, in data set [5] (setting [18]), the time of peak concentration (Tmax) was 1.67 ± 0.52 h and the half-life was 6.03 ± 0.19 h. Further, in data set [6], the CYP2C9 expression levels entry is “no significant differences”. In data set [7], the “decrease in SBP” value is 14.7%. Besides, the “increase of AUC 0-t of LOS” value in data set [8] (with Ginkgo leaf tablets, ref Dong et al., 2018) was 70%. For the same molecule, in data set [8] (with Glimepirea, ref Chen et al., 2015), the “increase of AUC 0-t of LOS” value is 11.18%. For the same molecule, the “increase of AUC of LOS” value in data set [8] (with licochalcon A, ref Choi et al., 2013) is 33.38%.

Turning to `CC(C)=CCC[C@](C)(O[C@@H]1O[C@H](CO)[C@@H](O)[C@H](O)[C@H]1O)[C@H]1CC[C@]2(C)[C@@H]1[C@H](O)C[C@@H]1[C@@]3(C)CC[C@H](O)C(C)(C)[C@@H]3[C@@H](O[C@@H]3O[C@H](CO)[C@@H](O)[C@H](O)[C@H]3O)C[C@]12C` [Rg1, Ginsenoside Rg1], the “Effects on CYP3A4” value in data set [2] (ref Hao et al. (2008)) is on record as “Inhibition”. For the same molecule, the “Effects on CYP2C9” value in data set [3] (ref Hao et al. (2008)) is “Inhibition”.

For `CC(C)=CCC[C@](C)(O[C@@H]1O[C@H](CO)[C@@H](O)[C@H](O)[C@H]1O)[C@H]1CC[C@]2(C)[C@@H]1[C@H](O)C[C@@H]1[C@@]3(C)CC[C@H](O)C(C)(C)[C@@H]3[C@@H](O[C@@H]3O[C@H](CO)[C@@H](O)[C@H](O)[C@H]3O[C@@H]3O[C@@H](C)[C@H](O)[C@@H](O)[C@H]3O)C[C@]12C` [Re, Ginsenoside Re], the “Effects on CYP3A4” value in data set [2] (ref Hao et al. (2008)) is “Inhibition”. Also, the “Effects on CYP2C9” value in data set [3] (ref Hao et al. (2008)) is recorded as “Inhibition”.
